Measurements taken from patent publication US8221738B2, “Method for enhanced uptake of viral vectors in the myocardium” (Celladon Corporation, priority 2008, dated 2012).

What was measured:
[1] = Hemodynamic monitoring (mean aortic/arterial pressure) during administration of AAV1/SERCA2a; type: in vivo, Göttingen Minipigs; conditions: Groups 3 and 4 (nitroglycerin treated animals); maximum; except one time point in group 4
Procedure: (§1) Administration on Day 0 was via the direct coronary infusion procedure described below. Animals from Groups 1-3 were dosed with a total volume of 12 mL of AAV1/SERCA2a solution which was infused at a constant rate of 1.2 mL/minute over a 10 minute period. Animals from Groups 3 and 4 received nitroglycerin as a bolus intracoronary injection immediately prior to administration of AAV1/SERCA2a. Animals from Group 3 were dosed with a total volume of 12 mL of AAV1/SERCA2a and nitroglycerin solution, which was infused at a constant rate of 1.2 mL/minute over a 10 minute period. Animals from Group 4 were dosed with a total volume of 12 mL of normal saline, which was infused at a constant rate of 1.2 mL/minute over a 10 minute period. The direct infusion system is composed of standard (commercially available) components including a conventional guide sheath, 0.014″ guide-wire, a 5F infusion (guide) catheter and two programmable syringe pumps. The direct intracoronary infusion procedure began with introduction of the conventional guide sheath using a common carotid arterial or femoral arterial approach. The Coronary Infusion Catheter (e.g., Cordis Vista Brite Tip Guiding Catheter or similar model appropriate for cannulation of the left main coronary artery) was then placed in the left main coronary artery under fluoroscopic guidance. […]

SERCA2a mRNA = SERCA2a mRNA expression via RT-PCR in heart sections, 30 day single dose tissue distribution study; type: in vivo, Göttingen Minipigs; conditions: nitroglycerin given with AAV1/SERCA2a; especially deep myocardial regions (septum, middle layer anterior wall)
Procedure: as §1, with “pumps.” for “pumps. The direct intracoronary infusion procedure began with introduction of the conventional guide sheath using a common carotid arterial or femoral arterial approach. The Coronary Infusion Catheter (e.g., Cordis Vista Brite Tip Guiding Catheter or similar model appropriate for cannulation of the left main coronary artery) was then placed in the left main coronary artery under fluoroscopic guidance.”
Total mRNA and protein expression in the left ventricle of individual sections was calculated (sum of sections 1-10 in FIG. 1), and the septum (section #5 in FIG. 1), and the middle layer anterior wall (section #6 in FIG. 1) were also analyzed separately, as these regions represent deep myocardium, furthest from the site of infusion. […]

SMILES: O=[N+]([O-])OCC(CO[N+](=O)[O-])O[N+](=O)[O-] [nitroglycerin, glyceryl trinitrate]
- decrease in Mean arterial pressure (MAP) compared to baseline [1]: ≤ 6 mm Hg
- vector uptake (SERCA2a mRNA): enhanced
